Earlier results on 3 molecules are cited in PMC4728427, “Mechanism of allosteric activation of TMEM16A/ANO1 channels by a commonly used chloride channel blocker” (British Journal of Pharmacology, 2016).

Broadly, the EC50 is the concentration at which the effect is half-maximal. For orientation: IC50 means the concentration at which inhibition is half-maximal.

Like-named read-outs stand apart in the source and are kept apart here.

For one data set, the system named is CaCC currents (TMEM16A). Further details: method as in Namkung et al., 2011b. The conditions noted are these: ref Namkung et al., 2011b; read-out: EC50 activation of CaCC currents; cited from earlier work.
Data set [1] has as its system TMEM16A. Also noted: method as in Namkung et al., 2011a. The conditions noted are these: ref Namkung et al., 2011a; read-out: IC50 TMEM16A inhibition; cited from earlier work.
Data set [2] deals with head and neck squamous cell carcinoma. Further details: method as in Duvvuri et al., 2012. The conditions noted are these: ref Duvvuri et al., 2012; cited from earlier work.
Data set [3] deals with TMEM16A. Also noted: method as in Oh et al., 2013. The conditions noted are these: ref Oh et al., 2013; read-out: IC50 TMEM16A inhibition; cited from earlier work.
For another data set, the system named is CFTR. Further details: method as in Oh et al., 2013. The conditions noted are these: ref Oh et al., 2013; cited from earlier work.
The subject of another data set is bestrophin 1. Also noted: method as in Oh et al., 2013. The conditions noted are these: ref Oh et al., 2013; cited from earlier work.
Another data set concerns ClC‐2. Further details: method as in Oh et al., 2013. The conditions noted are these: ref Oh et al., 2013; cited from earlier work.

As to `COCCN(C(=O)c1cc(OC)c(OC)c(OC)c1)c1nc(-c2ccccc2)cs1` [Eact], the EC50 in the data set with CaCC currents (TMEM16A) is 3 to 6 µM.
For the molecule `CCc1c(C)nc(SCC(=O)Nc2nc(-c3ccc(OC)cc3)cs2)[nH]c1=O` [T16inh‐A01], in the data set on TMEM16A [1], the IC50 is approximately 1 µM. For the same molecule, the tumour growth result in data set [2] was “reduced tumour growth”.
For the molecule `COc1cc(Nc2ccc([N+](=O)[O-])cc2C(=O)O)cc2ccccc12` [MONNA], the IC50 in the data set on TMEM16A [3] was approximately 1 µM. The “interaction with CFTR” value with CFTR is “does not interact”. Also, the “interaction with bestrophin 1” value in the data set on bestrophin 1 was “does not interact”. In the data set with ClC‐2, the “interaction with ClC‐2” value is “does not interact”.
